A short description of series [1]: 180-day mortality in heart failure patients with normal or impaired renal function (pooled levosimendan trials 3001021b and 3001030). Format: in vivo, human. The settings on record: for 180-day mortality in levosimendan groups: heart failure patients, i.v. infusion 6 or 24 h. How it is done:
In total, 701 heart failure patients from levosimendan trials 3001021b and 3001030 were included into the analysis to determine the effect of levosimendan on mortality in patients with normal or impaired renal function.
The study 3001021b compared levosimendan with dobutamine in a double-blind, parallel-group, randomised trial in 203 patients with low-output heart. Treatment with levosimendan (n=103) was started with a loading dose of 24 μg/kg infused over 10 minutes and followed by a continuous infusion of 0.1 μg/kg/min. For patients in whom the cardiac index had not increased by at least 30% compared with the baseline value at 2 hours, the dose was doubled to 0.2 μg/kg/min for levosimendan (n=69). Infusions were continued for totally 24 hours. Mortality was followed prospectively up to 31 days and retrospectively up to 180 days.
The study 3001030 evaluated the safety of levosimendan in patients with left ventricular failure after an acute myocardial infarction. The study was a placebo-controlled, double-blind, parallel-group, randomised, trial in 504 patients. Levosimendan was administered as a 10-minute loading dose followed by a continuous infusion for a total of 6 hours. The following doses were used: 6 μg/kg+0.1 μg/kg/min (n=103), 12 μg/kg+0.2 μg/kg/min (n=100), 24 μg/kg+0.2 μg/kg/min (n=99), 24 μg/kg+0.4 μg/kg/min (n=100) and similar placebo infusion (n=102). All-cause mortality was followed prospectively up to 14-days and retrospectively up to 180-days.
The patients combined from the above studies were classified according to their baseline renal function. The formula of Cockroft and Gault (Lafayette et al, 1997) was used to calculate the creatinine clearance (CLcr) values from the baseline serum creatinine) values as follows: [formula] [formula]

Series [2] is described as follows: Elimination half-life of the active metabolite (II) in man. Particulars: human, in vivo.

With `CC1CC(=O)NN=C1c1ccc(NN=C(C#N)C#N)cc1` (single isomer, unassigned; (-)) [Levosimendan, (−)-enantiomer of [[4-(1,4,5,6-tetrahydro-4-methyl-6-oxo-3-pyridazinyl)phenyl]hydrazono]propanedinitrile], in series [1] (180-day, comparison of normal and impaired renal function), the “Decrease in mortality versus control groups by renal function” value was “decrease in mortality was highest in patients with impaired renal function”. In addition, the “180-day mortality in levosimendan groups” value in series [1] (mild renal impairment (CLcr 50-80 ml/min)) was found to be 18%; in series [1] (normal renal function (CLcr > 80 ml/min)), 15%.
Broadly, the half-life is the time in which the quantity being followed falls by half. For `CC(=O)Nc1ccc(C2=NNC(=O)C[C@H]2C)cc1` [active metabolite (II), (R)-N-[4-(1,4,5,6-tetrahydro-4-methyl-6-oxo-3-pyridazinyl)phenyl]acetamide], the half-life in series [2] is approximately 72 h.
